Reference: patent US20050037436A1, “Test systems and the use thereof for identifying and characterizing compounds” (priority 2000, published 2005)

Legend:
HC110-R = type: binding, Haemonchus contortus
Text: Since denaturation of proteins is necessary for carrying out SDS-PAGE, there may be destruction of conformation-dependent epitopes. Antibodies or proteins which specifically recognize such epitopes may therefore no longer bind. […] BAY44-4400 differs from PF1022A by 2 morpholine residues which are covalently bonded to the phenyl rings of the two D-phenyllactyl radicals of PF1022A. […] For this purpose, total protein from untransfected HEK-293 cells and HEK-293 cells which transiently express HC110-R-Myc/His, and from the 54 kDa N terminus and the 21 kDa C terminus of HC110-R which were expressed in E. coli, were fractionated by SDS-PAGE, renatured and blotted in the usual way. […] In addition, a partially renatured SDS polyacrylamide gel with the protein fractions of untransfected HEK-293 cells, HEK-293 cells transiently transfected with HC110-R-Myc/His, and the N terminus of HC110-R expressed in E. coli and total protein from H. contortus was blotted, incubated with PF1022A-biotin and detected using streptavidin HRP.

[1] = tested on: untransfected HEK-293 cells; assay: Ca2+ imaging of untransfected or GFP-transfected HEK-293 cells (control); type: cell-based, human
Method: The intracellular free Ca^2+ concentration [Ca^2+]i was measured in COS-7 and HEK293 cells transiently transfected with the HC110-R-EGFP or β2-AR-EGFP construct using the calcium imaging method (see also FIG. 11). In each case 2×10^5 COS-7 and HEK293 cells were applied to a 42 mm cover glass coated with 1% gelatine in 55 mm tissue culture dishes with 5 ml of DMEM medium (with 10% FCS and pen/strep). The transfection took place with the aid of the non-liposomal transfection reagent FuGENE 6 (Roche Molecular Biochemicals, Mannheim). […] Constructs of the HC110-R full-length clone with a GFP tag fused in the correct reading frame, and the complete cDNA of the β2-adrenergic receptor which had likewise been provided with a GFP tag at the 3′ end, were transfected. […]
Loading of the cells with 1 μM Fura-2/acetoxymethyl ester (Fura-2/AM) (Sigma, Deisenhofen) took place 48 h after the transfection in an Na^+-HBS solution (150 mM NaCl; 5.4 mM KCl; 1.8 mM CaCl2; 0.8 mM MgSO4 7H2O; 20 mM glucose; 20 mM Hepes in H2O, pH 7.3) at 37° C., 5% CO2 and 95% humidity for 30 min. After the incubation, the cells loaded with Fura-2/AM were examined under an inverted microscope (Zeiss, Axiovert, Germany) and, in parallel with this, in a digital imaging fluorescence microscope (PTI) and differentiated into transfected and untransfected cells at a wavelength of 440 and 490 nm respectively. […]

[2] = biological target: T1, human muscarinic M1 acetylcholine receptor (Homo sapiens, UniProt P11229); type: cell-based; conditions: 400 ng/ml BAY44-4400
T1 construct: The full-length cDNA of a human muscarinic receptor 1 (huM1Rez); expressed in transfected cells; host or cells: HEK-293, transient (pEGFP-N3)
T1 sequence (P11229 1-460): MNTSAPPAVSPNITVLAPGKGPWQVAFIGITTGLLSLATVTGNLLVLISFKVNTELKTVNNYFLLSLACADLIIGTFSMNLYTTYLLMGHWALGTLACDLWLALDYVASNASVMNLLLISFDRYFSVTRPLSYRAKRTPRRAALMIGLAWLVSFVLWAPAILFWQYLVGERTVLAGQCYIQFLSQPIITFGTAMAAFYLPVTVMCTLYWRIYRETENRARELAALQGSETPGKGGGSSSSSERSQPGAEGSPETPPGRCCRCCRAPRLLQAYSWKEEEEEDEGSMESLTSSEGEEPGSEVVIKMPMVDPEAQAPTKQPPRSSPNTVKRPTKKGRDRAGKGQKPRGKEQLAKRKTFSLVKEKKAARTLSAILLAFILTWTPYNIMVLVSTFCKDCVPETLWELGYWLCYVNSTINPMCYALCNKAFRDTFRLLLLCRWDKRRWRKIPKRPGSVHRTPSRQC

CC(C)C[C@H]1C(=O)O[C@H](Cc2ccc(N3CCOCC3)cc2)C(=O)N(C)[C@@H](CC(C)C)C(=O)O[C@H](C)C(=O)N(C)[C@@H](CC(C)C)C(=O)O[C@H](Cc2ccc(N3CCOCC3)cc2)C(=O)N(C)[C@@H](CC(C)C)C(=O)O[C@H](C)C(=O)N1C [BAY44-4400, cyclo(-D-Lac-L-MeLeu-D-p-morpholinyl-PhLac-L-MeLeu-)]
HC110-R-specific binding in a Western blot (HC110-R; denatured proteins, no renaturation): not identifiable | band in HEK-293 cells expressing HC110-R-Myc/His (HC110-R; renatured with urea, no band in untransfected cells): distinct band 116 kDa in size | binding to 54 kDa N terminus of HC110-R (HC110-R; renatured, fragment expressed in E. coli): bound to the 54 kDa N terminus of HC110-R | changes caused by substance [1]: causes no changes in untransfected cells | carbachol-induced increase in [Ca2+]i in presence of BAY44-4400 [2]: 89 ± 5.5 nM
